# Results reported in article PMC11233931, “Remodeling tumor‐associated macrophage for anti‐cancer effects by rational design of irreversible inhibition of mitogen‐activated protein kinase‐activated protein kinase 2” (MedComm, 2024).
# Experiments:
# Assay in all cases: Eurofins kinase selectivity profile against 380 other human recombinant kinases (Table S2)
# Format in all cases: biochemical
# [1] = target: T1, 380 human recombinant protein kinases (Homo sapiens, UniProt O94804); details: LOK(h), read-out: Inhibition rate
# T1 construct: purchased Eurofins (Celle Lévescault)
# Procedure, shortened: (§1)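 Commercial selectivity screen of the test compound against a panel of 380 human recombinant protein kinases, run by an outside contractor at several compound concentrations to check whether its potency was specific for MK2.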
# [2] = target: T2, 380 human recombinant protein kinases (Homo sapiens, UniProt P51957); details: NEK4(h), read-out: Inhibition rate
# T2 construct: purchased Eurofins (Celle Lévescault)
# Procedure, shortened: as §1
# [3] = target: T3, 380 human recombinant protein kinases (Homo sapiens, UniProt P00519, Y253F); details: Abl(Y253F)(h), read-out: Inhibition rate
# T3 construct: purchased Eurofins (Celle Lévescault)
# Procedure, shortened: as §1
# [4] = target: T4, 380 human recombinant protein kinases (Homo sapiens, UniProt Q13873); details: BMPR2(h), read-out: Inhibition rate
# T4 construct: purchased Eurofins (Celle Lévescault)
# T4 sequence (Q13873 27-1038): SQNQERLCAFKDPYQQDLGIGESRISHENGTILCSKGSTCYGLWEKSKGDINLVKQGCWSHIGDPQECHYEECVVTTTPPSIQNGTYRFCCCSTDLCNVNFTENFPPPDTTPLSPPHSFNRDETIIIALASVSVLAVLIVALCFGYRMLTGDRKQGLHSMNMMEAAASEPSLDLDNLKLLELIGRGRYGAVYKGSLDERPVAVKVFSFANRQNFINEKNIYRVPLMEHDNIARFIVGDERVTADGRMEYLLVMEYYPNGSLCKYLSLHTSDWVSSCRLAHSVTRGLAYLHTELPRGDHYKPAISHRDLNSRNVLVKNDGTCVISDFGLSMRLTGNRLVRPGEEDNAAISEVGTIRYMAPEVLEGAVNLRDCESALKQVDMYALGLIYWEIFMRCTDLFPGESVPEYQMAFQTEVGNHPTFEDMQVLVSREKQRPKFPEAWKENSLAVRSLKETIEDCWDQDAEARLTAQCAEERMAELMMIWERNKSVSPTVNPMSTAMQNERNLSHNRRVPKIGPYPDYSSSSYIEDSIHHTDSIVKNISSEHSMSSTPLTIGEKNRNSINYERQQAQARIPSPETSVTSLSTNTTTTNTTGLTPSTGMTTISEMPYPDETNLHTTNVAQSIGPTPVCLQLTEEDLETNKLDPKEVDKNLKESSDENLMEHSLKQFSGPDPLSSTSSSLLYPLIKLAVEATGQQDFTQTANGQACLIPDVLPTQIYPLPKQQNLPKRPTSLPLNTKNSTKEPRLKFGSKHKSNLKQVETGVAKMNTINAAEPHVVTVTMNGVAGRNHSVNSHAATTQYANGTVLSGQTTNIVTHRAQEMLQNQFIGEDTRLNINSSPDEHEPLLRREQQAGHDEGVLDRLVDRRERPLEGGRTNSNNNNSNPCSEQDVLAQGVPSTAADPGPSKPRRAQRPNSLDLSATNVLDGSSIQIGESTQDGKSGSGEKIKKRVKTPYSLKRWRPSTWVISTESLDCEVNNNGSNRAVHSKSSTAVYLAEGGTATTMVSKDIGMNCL
# Procedure, shortened: as §1
# [5] = target: T5, 380 human recombinant protein kinases (Homo sapiens, UniProt Q92772); details: CDKL2(h), read-out: Inhibition rate
# T5 construct: purchased Eurofins (Celle Lévescault)
# T5 sequence (Q92772 1-493): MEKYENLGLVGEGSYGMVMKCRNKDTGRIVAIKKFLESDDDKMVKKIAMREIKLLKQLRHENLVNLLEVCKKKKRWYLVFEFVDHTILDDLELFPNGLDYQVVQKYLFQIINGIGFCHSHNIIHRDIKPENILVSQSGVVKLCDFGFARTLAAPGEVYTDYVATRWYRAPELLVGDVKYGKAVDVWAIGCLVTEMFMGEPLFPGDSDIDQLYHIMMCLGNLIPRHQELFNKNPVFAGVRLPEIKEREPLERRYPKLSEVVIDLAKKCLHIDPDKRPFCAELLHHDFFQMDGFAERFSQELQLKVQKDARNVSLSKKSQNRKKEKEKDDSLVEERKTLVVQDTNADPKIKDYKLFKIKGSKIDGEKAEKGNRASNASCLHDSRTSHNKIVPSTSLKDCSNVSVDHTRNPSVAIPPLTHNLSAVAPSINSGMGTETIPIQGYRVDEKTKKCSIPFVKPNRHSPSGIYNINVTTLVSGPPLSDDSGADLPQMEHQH
# Procedure, shortened: as §1
# [6] = target: T6, 380 human recombinant protein kinases (Homo sapiens, UniProt Q02763); details: Tie2 (h), read-out: Inhibition rate (%)
# T6 construct: purchased Eurofins (Celle Lévescault)
# Procedure, shortened: as §1
# [7] = target: T7, 380 human recombinant protein kinases (Homo sapiens, UniProt P23458); details: JAK1(h), read-out: Inhibition rate
# T7 construct: purchased Eurofins (Celle Lévescault)
# Procedure, shortened: as §1
# [8] = target: T8, 380 human recombinant protein kinases (Homo sapiens, UniProt P52564); details: MKK6(h), read-out: Inhibition rate
# T8 construct: purchased Eurofins (Celle Lévescault)
# T8 sequence (P52564 1-334): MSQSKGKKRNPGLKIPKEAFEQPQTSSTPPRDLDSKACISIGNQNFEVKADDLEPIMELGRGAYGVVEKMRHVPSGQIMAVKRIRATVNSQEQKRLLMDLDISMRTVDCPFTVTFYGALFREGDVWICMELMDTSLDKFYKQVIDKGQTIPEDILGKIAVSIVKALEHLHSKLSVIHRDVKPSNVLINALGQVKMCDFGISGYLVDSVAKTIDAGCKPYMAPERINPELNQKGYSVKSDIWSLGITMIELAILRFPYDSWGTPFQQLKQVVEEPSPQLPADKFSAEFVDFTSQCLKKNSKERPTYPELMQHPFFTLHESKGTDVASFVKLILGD
# Procedure, shortened: as §1
# T2 sequence (P51957 whole entry): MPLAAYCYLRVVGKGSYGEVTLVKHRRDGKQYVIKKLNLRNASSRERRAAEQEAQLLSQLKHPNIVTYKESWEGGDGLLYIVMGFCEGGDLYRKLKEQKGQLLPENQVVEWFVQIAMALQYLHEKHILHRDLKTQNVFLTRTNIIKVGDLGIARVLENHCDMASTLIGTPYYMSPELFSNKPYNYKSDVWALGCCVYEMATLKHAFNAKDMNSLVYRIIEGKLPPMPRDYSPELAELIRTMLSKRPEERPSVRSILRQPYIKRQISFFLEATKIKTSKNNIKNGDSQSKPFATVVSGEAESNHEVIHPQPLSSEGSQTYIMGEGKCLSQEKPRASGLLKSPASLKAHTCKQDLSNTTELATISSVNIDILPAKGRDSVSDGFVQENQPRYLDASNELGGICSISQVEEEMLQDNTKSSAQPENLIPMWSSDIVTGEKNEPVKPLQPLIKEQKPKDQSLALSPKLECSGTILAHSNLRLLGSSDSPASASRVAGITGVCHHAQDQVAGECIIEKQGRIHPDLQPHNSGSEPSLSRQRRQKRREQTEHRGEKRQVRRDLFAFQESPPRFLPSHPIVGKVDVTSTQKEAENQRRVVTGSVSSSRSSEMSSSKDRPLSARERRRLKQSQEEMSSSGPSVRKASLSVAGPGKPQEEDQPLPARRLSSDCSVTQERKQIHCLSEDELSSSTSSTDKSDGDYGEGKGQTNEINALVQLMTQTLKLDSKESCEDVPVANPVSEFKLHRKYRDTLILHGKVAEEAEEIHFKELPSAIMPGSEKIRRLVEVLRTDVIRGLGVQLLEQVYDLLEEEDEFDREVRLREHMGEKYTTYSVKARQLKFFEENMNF
# T6 sequence (Q02763 23-1124): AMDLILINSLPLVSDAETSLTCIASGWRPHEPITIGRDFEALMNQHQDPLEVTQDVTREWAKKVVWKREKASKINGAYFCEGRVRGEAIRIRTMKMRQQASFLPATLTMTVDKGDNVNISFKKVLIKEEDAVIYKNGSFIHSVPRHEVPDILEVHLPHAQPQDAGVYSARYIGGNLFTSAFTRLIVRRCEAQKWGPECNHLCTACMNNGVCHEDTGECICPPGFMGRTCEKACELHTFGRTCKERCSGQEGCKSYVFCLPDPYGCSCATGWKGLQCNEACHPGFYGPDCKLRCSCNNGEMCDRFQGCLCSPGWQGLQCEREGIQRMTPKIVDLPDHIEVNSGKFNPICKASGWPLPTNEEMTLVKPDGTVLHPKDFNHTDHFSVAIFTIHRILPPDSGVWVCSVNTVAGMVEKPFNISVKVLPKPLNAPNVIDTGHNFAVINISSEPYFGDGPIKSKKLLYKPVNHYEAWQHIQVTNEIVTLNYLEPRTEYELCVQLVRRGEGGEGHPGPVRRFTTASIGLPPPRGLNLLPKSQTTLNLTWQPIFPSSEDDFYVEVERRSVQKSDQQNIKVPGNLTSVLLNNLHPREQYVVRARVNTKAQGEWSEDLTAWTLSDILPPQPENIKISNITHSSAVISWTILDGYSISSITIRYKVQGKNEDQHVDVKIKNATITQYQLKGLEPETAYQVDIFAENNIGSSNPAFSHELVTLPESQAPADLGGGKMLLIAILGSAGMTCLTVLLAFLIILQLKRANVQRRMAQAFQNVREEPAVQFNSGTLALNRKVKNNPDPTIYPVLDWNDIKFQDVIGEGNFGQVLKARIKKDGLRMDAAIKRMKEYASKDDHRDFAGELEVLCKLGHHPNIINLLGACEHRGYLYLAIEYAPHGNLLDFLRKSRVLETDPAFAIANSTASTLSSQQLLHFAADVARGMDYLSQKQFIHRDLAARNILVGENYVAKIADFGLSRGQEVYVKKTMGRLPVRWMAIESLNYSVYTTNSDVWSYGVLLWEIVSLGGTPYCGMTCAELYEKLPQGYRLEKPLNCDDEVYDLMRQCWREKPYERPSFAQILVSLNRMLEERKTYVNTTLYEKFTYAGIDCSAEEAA
# T7 sequence (P23458 whole entry): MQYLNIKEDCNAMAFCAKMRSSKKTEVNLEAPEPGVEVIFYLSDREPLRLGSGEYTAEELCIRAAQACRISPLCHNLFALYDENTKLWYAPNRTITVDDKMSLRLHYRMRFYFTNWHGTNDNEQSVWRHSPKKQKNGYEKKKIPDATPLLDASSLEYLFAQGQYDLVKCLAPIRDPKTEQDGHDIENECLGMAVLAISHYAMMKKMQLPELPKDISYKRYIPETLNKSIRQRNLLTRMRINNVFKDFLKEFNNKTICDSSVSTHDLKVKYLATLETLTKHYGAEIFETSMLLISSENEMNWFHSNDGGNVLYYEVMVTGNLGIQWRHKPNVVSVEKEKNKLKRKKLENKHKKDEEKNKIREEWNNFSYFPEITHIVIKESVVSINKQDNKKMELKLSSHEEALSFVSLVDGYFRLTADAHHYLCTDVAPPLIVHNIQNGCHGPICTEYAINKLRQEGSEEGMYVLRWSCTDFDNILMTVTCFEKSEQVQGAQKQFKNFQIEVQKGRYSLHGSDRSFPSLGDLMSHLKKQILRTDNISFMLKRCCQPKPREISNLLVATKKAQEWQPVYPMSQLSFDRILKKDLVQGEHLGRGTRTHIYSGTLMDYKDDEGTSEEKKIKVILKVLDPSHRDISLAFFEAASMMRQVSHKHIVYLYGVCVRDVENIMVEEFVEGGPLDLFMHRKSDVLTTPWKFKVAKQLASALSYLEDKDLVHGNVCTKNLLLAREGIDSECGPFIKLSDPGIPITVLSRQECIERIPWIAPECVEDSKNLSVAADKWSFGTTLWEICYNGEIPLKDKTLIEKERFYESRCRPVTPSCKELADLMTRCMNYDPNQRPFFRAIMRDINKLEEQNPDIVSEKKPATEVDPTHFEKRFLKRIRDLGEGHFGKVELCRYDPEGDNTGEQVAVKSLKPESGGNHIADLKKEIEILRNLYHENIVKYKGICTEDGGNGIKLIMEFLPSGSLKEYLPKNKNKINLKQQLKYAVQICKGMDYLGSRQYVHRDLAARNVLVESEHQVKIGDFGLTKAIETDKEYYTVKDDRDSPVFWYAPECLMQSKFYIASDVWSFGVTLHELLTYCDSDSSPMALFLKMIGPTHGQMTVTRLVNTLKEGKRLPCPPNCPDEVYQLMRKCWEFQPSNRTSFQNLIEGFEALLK
# T1 sequence (O94804 whole entry): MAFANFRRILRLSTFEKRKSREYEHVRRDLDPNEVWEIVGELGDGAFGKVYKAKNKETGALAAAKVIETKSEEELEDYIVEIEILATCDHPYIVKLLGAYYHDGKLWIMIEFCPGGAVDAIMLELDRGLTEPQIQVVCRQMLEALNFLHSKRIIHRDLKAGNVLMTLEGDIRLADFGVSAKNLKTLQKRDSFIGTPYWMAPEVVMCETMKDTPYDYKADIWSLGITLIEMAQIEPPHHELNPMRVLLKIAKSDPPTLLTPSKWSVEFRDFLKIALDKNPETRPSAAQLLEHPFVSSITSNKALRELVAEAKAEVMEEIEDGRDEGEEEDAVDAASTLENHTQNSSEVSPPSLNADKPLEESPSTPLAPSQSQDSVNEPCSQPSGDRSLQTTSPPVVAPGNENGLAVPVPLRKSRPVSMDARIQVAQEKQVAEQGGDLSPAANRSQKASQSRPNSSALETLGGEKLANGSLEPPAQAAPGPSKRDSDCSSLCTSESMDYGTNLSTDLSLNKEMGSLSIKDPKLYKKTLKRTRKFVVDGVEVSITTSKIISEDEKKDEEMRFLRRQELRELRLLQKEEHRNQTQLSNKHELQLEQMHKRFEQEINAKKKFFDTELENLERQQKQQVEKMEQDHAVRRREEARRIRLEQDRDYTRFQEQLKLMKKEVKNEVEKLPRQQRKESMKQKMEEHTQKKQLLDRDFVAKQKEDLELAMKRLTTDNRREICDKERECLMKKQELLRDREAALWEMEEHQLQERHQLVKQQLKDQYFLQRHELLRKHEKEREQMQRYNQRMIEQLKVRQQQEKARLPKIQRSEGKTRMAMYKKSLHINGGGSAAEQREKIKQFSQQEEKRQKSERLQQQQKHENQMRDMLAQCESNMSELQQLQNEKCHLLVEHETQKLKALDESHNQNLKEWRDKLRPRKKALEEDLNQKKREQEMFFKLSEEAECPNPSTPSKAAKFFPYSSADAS
structure (smiles),measurement,setting,value
C=CC(=O)Nc1cc(-c2cc(-c3cc4c([nH]3)CCNC4=O)ccn2)ccc1OC(F)(F)F [compound 11],inhibition at 0.01 µM,[1]; 10 nM,-2%
same,inhibition at 0.1 µM,[1]; 100 nM,6%
same,inhibition at 1 µM,[1]; 1000 nM,54%
same,inhibition at 0.01 µM,[2]; 10 nM,-2%
same,inhibition at 0.1 µM,[2]; 100 nM,5%
same,inhibition at 1 µM,[2]; 1000 nM,34%
same,inhibition at 0.01 µM,[3]; 10 nM,0%
same,inhibition at 0.1 µM,[3]; 100 nM,2%
same,inhibition at 1 µM,[3]; 1000 nM,21%
same,inhibition at 0.01 µM,[4]; 10 nM,8%
same,inhibition at 0.1 µM,[4]; 100 nM,13%
same,inhibition at 1 µM,[4]; 1000 nM,28%
same,inhibition at 0.01 µM,[5]; 10 nM,31%
same,inhibition at 0.1 µM,[5]; 100 nM,50%
same,inhibition at 1 µM,[5]; 1000 nM,54%
same,inhibition at 0.01 µM,[6]; 10 nM,0%
same,inhibition at 0.1 µM,[6]; 100 nM,10%
same,inhibition at 1 µM,[6]; 1000 nM,24%
same,inhibition at 0.01 µM,[7]; 10 nM,-6%
same,inhibition at 0.1 µM,[7]; 100 nM,-8%
same,inhibition at 1 µM,[7]; 1000 nM,1%
same,inhibition at 0.01 µM,[8]; 10 nM,-4%
same,inhibition at 0.1 µM,[8]; 100 nM,-9%
same,inhibition at 1 µM,[8]; 1000 nM,-15%
